# Measured values taken from paper PMC12217481, “Structure and mechanism of taniborbactam inhibition of the cefepime-hydrolyzing, partial R2-loop deletion Pseudomonas-derived cephalosporinase variant PDC-88” (Antimicrobial Agents and Chemotherapy, 2025).
# Like-named read-outs stand apart in the source and are kept apart here.
# Legend:
# [1] = test system: E. coli DH10B/pTU606 (PDC-1); test: Broth microdilution MIC, isogenic E. coli expressing PDC-1; type: cell-based; conditions: Escherichia coli
# Experimental: (§1) Genetic constructs used for minimum inhibitory concentration (MIC) testing were designed by Venatorx Pharmaceuticals and codon-optimized for use in E. coli and synthesized by Twist Bioscience as described previously ([9]). […] DH10B cells expressing an empty pET24a(+) vector (Novagen) were also grown, and the plasmid purified. Both pCR4-TOPO-PDC-88 and empty pET24a(+) were cut with BamHI and NdeI, the digests run on low-melting point agarose gels, and the bands of interest excised and ligated to yield a PDC-88 expressing pET24a(+) construct with the His tag removed. The PDC-3 expression construct was created in a similar manner but starting with a previously described pBC SK(−) vector ([42]). The final plasmids were grown in E. coli DH10B cells and purified.
# (§2) Modal broth microdilution MICs (or median broth microdilution MICs where appropriate) were determined in accordance with Clinical and Laboratory Standards Institute (CLSI) M07 guidelines ([43]). Isogenic E. coli DH10B cells expressing the abovementioned plasmid-encoded PDC constructs were used. […] CLSI quality control strains Escherichia coli NCTC 13353, E. coli ATCC 35218, and Klebsiella pneumoniae ATCC 700603 were used during testing ([24]).
# [2] = target: T1, PDC-88 (Pseudomonas aeruginosa, UniProt P24735, DEL316-317/G27D/G391A/T105A/V205L/V356I); test: Timed ESI-MS of acyl-enzyme formation, PDC-88; type: biochemical; conditions: timed ESI-MS, 1 to 30 min (ATM to 60 min)
# T1 construct: NdeI 5′-[…]-3ʹ and BamHI 5ʹ-[…]-3ʹ; His tag removed) (N); made in house; host or cells: E. coli BL21-CodonPlus (DE3)-RP, pET24a(+)
# Experimental: (§3) Timed ESI-MS experiments allow tracking of the reaction over time and determination of product modification, enabling the elucidation of mechanistic detail. Time courses were collected for both PDC-3 and PDC-88 with FEP (Fig. 4), CAZ (Fig. S1), TOL (Fig. S2), and ATM (Fig. S3). Substrate modification (here, loss of the R2 group) was determined based on differences between masses of apo and acyl-enzyme peaks (Fig. S4). […] Based on the differences in mass between the apo enzyme peaks, the acyl-enzyme peaks, and the molecular masses of each substrate, the mass of the adducts was determined and used to predict any portion of the substrate molecule that might be lost during the reaction (Fig. S4). As expected ([26][–][28]), all three cephalosporin antibiotics (FEP, CAZ, and TOL) lost their R2 groups during the reaction, while ATM (the sole monobactam) maintained its initial mass.
# (§4) Five micrograms of PDC-3 or PDC-88 was incubated at the indicated molar ratio (1:2 to 1:100 PDC:β-lactam) in a total volume of 20 µL in 1× PBS at pH 7.4 at room temperature for the duration of the indicated time points. Reactions were quenched with the addition of 10 µL acetonitrile and added to 1 mL of 0.1% formic acid in water.
# (§5) Data were collected using a Waters Synapt G2-Si quadrupole time-of-flight (Q-TOF) mass spectrometer and Waters Acquity UPLC BEH C18 1.7 µm column (2.1 by 100 mm). MassLynx V4.1 was used to deconvolute protein peaks. The tune settings for each sample were as follows: capillary voltage of 3.5 kV, sampling cone voltage of 35 V, source offset of 35 V, source temperature of 100°C, desolvation temperature of 500°C, cone gas flow rate of 100 L/h, desolvation gas flow rate of 800 L/h, and nebulizer bar at 6.0. Mobile phase A was 0.1% formic acid in water. Mobile phase B was 0.1% formic acid in acetonitrile. The mass accuracy of this system is ±5 Da.
# [3] = test system: E. coli DH10B/pTU629 (PDC-92); test: Broth microdilution MIC, isogenic E. coli expressing PDC-92; type: cell-based; conditions: Escherichia coli
# Experimental: as §1, §2
# [4] = test system: PDC-88; test: Spectrophotometric β-lactam hydrolysis (progress curves, steady-state kinetics) by PDC-88; type: biochemical, Pseudomonas aeruginosa; conditions: over 900 s
# Experimental: In order to determine the impact of the PDC-88 variant on hydrolysis, we determined hydrolysis progress curves for PDC-3, PDC-88, and a strongly hydrolyzing comparator (NDM-1 or PER-2) for cefepime (FEP, Fig. 3A), ceftazidime (CAZ, Fig. 3B), ceftolozane (TOL, Fig. 3C), and aztreonam (ATM, Fig. 3D).
# β-Lactamase kinetic and inhibitor constants were determined using an Agilent 8453 UV-Visible Spectrophotometer to record progress curves and determine initial rates and other kinetic parameters as appropriate. Reactions were carried out in 1× phosphate-buffered saline (PBS) (pH 7.4) at room temperature in a 0.2 cm path-length quartz cuvette (Hellma Analytics). Reads were taken every 10 s to minimize UV-mediated background hydrolysis.
# The extinction coefficients used were: nitrocefin, Δε482 = 17,400 M^−1 cm^−1, and cefepime, Δε260 = −10,000 M^−1 cm^−1.
# The kinetic constants KM and Vmax were determined using a nonlinear least-squares regression of the data to the Henri-Michaelis-Menten equation (equation 1) in Origin Version 2020b (OriginLab, Northampton, MA), where v is the velocity of the reaction; Vmax is the theoretical maximum velocity; KM is the Michaelis constant; and [S] is the substrate concentration: […]
# [5] = test system: E. coli DH10B/pTU625 (PDC-88); test: Broth microdilution MIC, isogenic E. coli expressing PDC-88; type: cell-based, Escherichia coli; conditions: Escherichia coli
# Experimental: as §1, §2
# [6] = test system: E. coli DH10B/pTU627 (PDC-90); test: Broth microdilution MIC, isogenic E. coli expressing PDC-90; type: cell-based; conditions: Escherichia coli
# Experimental: as §1, §2
# [7] = test system: E. coli ATCC 35218; test: Broth microdilution MIC, CLSI quality control strain; type: cell-based; conditions: Escherichia coli, ATCC35218, read-out: MIC TOL TZB
# Experimental: as §2
# [8] = test system: E. coli DH10B/pTU626 (PDC-89); test: Broth microdilution MIC, isogenic E. coli expressing PDC-89; type: cell-based; conditions: Escherichia coli
# Experimental: as §1, §2
# [9] = test system: E. coli DH10B/pTU609 (PDC-3); test: Broth microdilution MIC, isogenic E. coli expressing PDC-3; type: cell-based; conditions: Escherichia coli
# Experimental: as §1, §2
# [10] = test system: E. coli DH10B/pTU628 (PDC-91); test: Broth microdilution MIC, isogenic E. coli expressing PDC-91; type: cell-based; conditions: Escherichia coli
# Experimental: as §1, §2
# [11] = target: T2, PDC-3 (Pseudomonas aeruginosa, UniProt P24735, T105A); test: Timed ESI-MS of acyl-enzyme formation, PDC-3; type: biochemical; conditions: timed ESI-MS, 1 to 30 min (ATM to 60 min)
# T2 construct: The PDC-3 expression construct was created in a similar manner but starting with a previously described pBC SK(−) vector; made in house; host or cells: E. coli BL21-CodonPlus (DE3)-RP, pET24a(+)
# Experimental: as §3, §4, §5
# [12] = test system: E. coli DH10B/pTU501 (vector); test: Broth microdilution MIC, isogenic E. coli empty vector control; type: cell-based; conditions: Escherichia coli
# Experimental: as §1, §2
# [13] = test system: K. pneumoniae ATCC 700603; test: Broth microdilution MIC, CLSI quality control strain; type: cell-based; conditions: Klebsiella pneumoniae
# Experimental: as §2
# [14] = test system: isogenic E. coli strains expressing PDC R2-loop deletion variants (PDC-88 to PDC-92); test: MIC changes across the five isogenic E. coli R2-loop deletion strains; type: cell-based, Escherichia coli; conditions: inhibitor at constant 4 µg/mL; R2-loop deletion variant strains
# Experimental: as §2
smiles,measurement,setting,value
"Cn1c(N)c(NC(=O)NCCN)c[n+]1CC1=C(C(=O)O)N2C(=O)[C@@H](NC(=O)/C(=N\OC(C)(C)C(=O)[O-])c3nsc(N)n3)[C@H]2SC1 [TOL, ceftolozane]",MIC,[1]; read-out: MIC TOL TZB,4 µg/mL
same,MIC,"[1]; E. coli DH10B/pTU606 (PDC-1), read-out: MIC TOL Alone",4 µg/mL
same,acyl-enzyme complex formation and deacylation,[2],formed an acyl-enzyme complex that deacylated at a moderate rate
same,MIC,[3]; read-out: MIC TOL TZB,8 µg/mL
same,MIC,"[3]; E. coli DH10B/pTU629 (PDC-92), read-out: MIC TOL Alone",16 µg/mL
same,difference between hydrolysis progress curves of PDC-3 and PDC-88,[4],no appreciable difference
same,MIC,[5]; read-out: MIC TOL TZB,8 µg/mL
same,MIC,"[5]; E. coli DH10B/pTU625 (PDC-88), read-out: MIC TOL Alone",16 µg/mL
same,MIC,[6]; read-out: MIC TOL TZB,16 µg/mL
same,MIC,"[6]; E. coli DH10B/pTU627 (PDC-90), read-out: MIC TOL Alone",16 µg/mL
same,MIC,[7],0.25 µg/mL
same,MIC,[8]; read-out: MIC TOL TZB,8 µg/mL
same,MIC,"[8]; E. coli DH10B/pTU626 (PDC-89), read-out: MIC TOL Alone",16 µg/mL
same,MIC,[9]; read-out: MIC TOL TZB,4 µg/mL
same,MIC,"[9]; E. coli DH10B/pTU609 (PDC-3), read-out: MIC TOL Alone",4 µg/mL
same,MIC,[10]; read-out: MIC TOL TZB,16 µg/mL
same,MIC,"[10]; E. coli DH10B/pTU628 (PDC-91), read-out: MIC TOL Alone",16 µg/mL
same,acyl-enzyme complex formation and deacylation,[11],did not form a detectable acyl-enzyme complex
same,MIC,[12]; read-out: MIC TOL Alone,0.5 µg/mL
same,MIC,[12]; read-out: MIC TOL TZB,0.5 µg/mL
"CC(C)(O/N=C(\C(=O)N[C@@H]1C(=O)N2C(C(=O)[O-])=C(C[n+]3ccccc3)CS[C@H]12)c1csc(N)n1)C(=O)O [CAZ, ceftazidime]",MIC,[1]; read-out: MIC CAZ AVI,1 µg/mL
same,MIC,"[1]; E. coli DH10B/pTU606 (PDC-1), read-out: MIC CAZ Alone",64 µg/mL
same,acyl-enzyme complex formation and deacylation,[2],formed acyl-enzyme complexes with CAZ that deacylated slowly
same,MIC,[3]; read-out: MIC CAZ AVI,1 µg/mL
same,MIC,"[3]; E. coli DH10B/pTU629 (PDC-92), read-out: MIC CAZ Alone",> 128 µg/mL
same,difference between hydrolysis progress curves of PDC-3 and PDC-88,[4],no appreciable difference
same,MIC,[5]; read-out: MIC CAZ AVI,1 µg/mL
same,MIC,"[5]; E. coli DH10B/pTU625 (PDC-88), read-out: MIC CAZ Alone",128 µg/mL
same,MIC,[6]; read-out: MIC CAZ AVI,2 µg/mL
same,MIC,"[6]; E. coli DH10B/pTU627 (PDC-90), read-out: MIC CAZ Alone",> 128 µg/mL
same,MIC,"[13]; ATCC700603, read-out: MIC CAZ AVI",1 µg/mL
same,MIC,"[13]; ATCC700603, read-out: MIC CAZ Alone",32 µg/mL
same,MIC,[8]; read-out: MIC CAZ AVI,1 µg/mL
same,MIC,"[8]; E. coli DH10B/pTU626 (PDC-89), read-out: MIC CAZ Alone",128 µg/mL
same,MIC,[9]; read-out: MIC CAZ AVI,1 µg/mL
same,MIC,"[9]; E. coli DH10B/pTU609 (PDC-3), read-out: MIC CAZ Alone",64 µg/mL
same,MIC,[10]; read-out: MIC CAZ AVI,1 µg/mL
same,MIC,"[10]; E. coli DH10B/pTU628 (PDC-91), read-out: MIC CAZ Alone",128 µg/mL
same,acyl-enzyme complex formation and deacylation,[11],formed acyl-enzyme complexes with CAZ that deacylated slowly
same,MIC,[12]; read-out: MIC CAZ AVI,0.5 µg/mL
same,MIC,[12]; read-out: MIC CAZ Alone,0.5 µg/mL
"NC(=O)[C@@H]1CC[C@@H]2CN1C(=O)N2OS(=O)(=O)O [AVI, avibactam]",restoration of FEP activity / susceptibility by inhibitor,[14],restoring FEP activity in all cases
